Earlier results on one compound are cited in US20090087487A1, “Paliperidone sustained release formulation” (priority 2007, published 2009).

Molecules are shown by their SMILES.

In the case of `Cc1nc2n(c(=O)c1CCN1CCC(c3noc4cc(F)ccc34)CC1)CCCC2O` (stereo not shown) [Paliperidone, 4H-Pyrido[1,2-a]pyrimidin-4-one, 3-[2-[4-(6-fluoro-1,2-benzisoxazol-3-yl)-1-piperidinyl]ethyl]-6,7,8,9-tetrahydro-9-hydroxy-2-methyl], the “solubility in 0.1 N hydrochloric acid” value (0.1 N hydrochloric acid) is given as “soluble”. Besides, the solubility in methanol result (methanol) was “soluble”. The “solubility in methylene chloride” value (methylene chloride) was “freely soluble”. Moreover, under “water”, the solubility in water entry is “practically insoluble”.
